{"source": "paper PMC6013238", "about": "“Development of novel NEMO-binding domain mimetics for inhibiting IKK/NF-κB activation” (PLoS Biology, 2018)", "test_system": "mdx mice", "assay": "Chronic treatment of mdx mice, qRT-PCR of eMyHC and Pax7 in TA muscle", "type": "in vivo, mouse", "details": "Fig 7D, SR 30 mg/kg, 8K-NBD 10 mg/kg, 4 wk, single mice", "from_the_text": "Fig 7 NBD mimetics improve muscular pathology and grip strength in mdx mice. (A) Shown is the treatment regimen with NBD mimetics in mdx mice. (B) Hematoxylin–eosin staining of TA muscle from 7-wk-old, treated or untreated mdx mice. Images were taken at magnification of 20×. Representative images were shown for each treatment group. […] (E) TA muscle from 7-wk-old, treated or untreated mdx mice was stained with laminin by IHC to outline myofibers. Overall images of TA muscle were shown on the left side, and the inset panel images were shown on the right side. (F) Quantitation of minimum Feret diameter in centrally and noncentrally nucleated myofibers. (G) Forelimb force determined by grip strength test. […] Underlying data can be found in S1 Data. eMyHC, embryonic myosin heavy chain; IHC, immunohistochemistry; NBD, NEMO-binding domain; NEMO, NF-κB essential modulator; Pax7, paired box protein 7; qRT-PCR, quantitative real-time polymerase chain reaction; TA, tibialis anterior.\nTo determine whether SR12343 and SR12460 improve muscle pathology, TA muscle was stained with hematoxylin–eosin to assess inflammatory infiltration, necrosis, central nucleation, and fibrosis. […] To further quantitate the extent of inflammation in mdx muscle tissues, diaphragm and TA muscle were immunostained for cluster of differentiation 68 (CD68), a macrophage marker. […]", "note": "Where “and” joins values, the source holds several entries; their conditions need not be identical. Identical values can stand only once."}
{"smiles": "O=C(CNc1ccc(Cl)cn1)NCCc1cccc(Br)c1", "note": "[SR12343]", "values": [{"measurement": "Pax7 mRNA in TA muscle (qRT-PCR)", "value": "1.512 and 1.485 and 1.5466 and 1.253 and 1.1889 and 1.394"}]}
